According to patent publication US20070082908A1, “Bicycle pyrazole derivative” (DAINIPPON SUMITOMO PHARMA CO., LTD., priority 2003, published 2007):
pIC50: −log10 of the molar value. Structures can show the parent of a compound that is named as a salt.

biological target: T1, human DPP IV (Homo sapiens, UniProt P27487); assay: In vitro DPP-IV inhibitory effect measurement test (human serum, fluorogenic substrate Gly-Pro-MCA); format: biochemical; conditions: human serum diluted 10-fold as enzyme source; substrate Glycyl-L-Proline 4-Methyl-Coumaryl-7-Amide 100 μM; room temperature; read-out: Inhibitory activity against human DPP IV IC50
T1 construct: Human serum containing DPP-IV enzyme was used in an experiment after being diluted with assay buffer; from tissue; host or cells: human serum (diluted 10-fold)
Protocol: In Vitro DPP-IV Inhibitory Effect Measurement Test
Human serum containing DPP-IV enzyme was used in an experiment after being diluted with assay buffer (25 mM Tris-HCl, 140 mM NaCl, 10 mM KCl, pH 7.9) (finally, diluted 10-fold). Each of solutions of each test compound having various concentrations was added to the diluted serum and the resulting mixture was incubated at room temperature. Then, a substrate (Glycyl-L-Proline 4-Methyl-Coumaryl-7-Amide, Peptide Laboratories Co., Ltd.) was added thereto to a final concentration of 100 μM and the reaction was carried out at room temperature. Acetic acid was added to the reaction mixture to a final concentration of 12.5% to terminate the reaction, and the intensity of fluorescence at an excitation wavelength of 360 nm and a measuring wavelength of 460 nm was measured by the use of a fluorescent plate reader. A compound concentration for 50% inhibition was calculated as an IC50 value from enzyme inhibitory activity values obtained by adding each test compound to a plurality of concentrations.

T1 sequence (P27487 39-766 limits assumed): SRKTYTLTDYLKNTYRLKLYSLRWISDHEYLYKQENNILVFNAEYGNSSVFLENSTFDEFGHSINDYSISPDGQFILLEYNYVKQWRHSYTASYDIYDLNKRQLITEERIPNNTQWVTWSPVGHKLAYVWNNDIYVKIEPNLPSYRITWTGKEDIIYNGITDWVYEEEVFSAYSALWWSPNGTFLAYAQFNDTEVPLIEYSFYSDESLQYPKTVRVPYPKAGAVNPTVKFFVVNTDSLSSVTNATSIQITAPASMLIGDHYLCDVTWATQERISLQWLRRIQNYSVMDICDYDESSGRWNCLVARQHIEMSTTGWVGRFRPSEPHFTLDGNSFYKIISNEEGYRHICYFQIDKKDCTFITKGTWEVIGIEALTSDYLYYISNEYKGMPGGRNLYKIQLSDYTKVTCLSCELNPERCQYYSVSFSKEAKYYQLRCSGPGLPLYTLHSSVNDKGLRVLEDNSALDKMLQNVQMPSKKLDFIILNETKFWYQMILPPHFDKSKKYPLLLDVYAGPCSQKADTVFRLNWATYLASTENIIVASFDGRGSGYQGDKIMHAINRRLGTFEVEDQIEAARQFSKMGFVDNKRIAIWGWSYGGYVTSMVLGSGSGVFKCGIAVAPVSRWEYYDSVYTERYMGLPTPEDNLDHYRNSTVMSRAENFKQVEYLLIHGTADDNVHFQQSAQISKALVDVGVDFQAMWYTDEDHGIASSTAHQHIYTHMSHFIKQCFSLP

Row | pIC50 | Compound
1 | 8.55 | N[C@@H]1CCCN(c2nn3ccn(Cc4nccc5ccccc45)c(=O)c3c2Cc2ccccc2Cl)C1 [Example 10]
2 | 8.02 | COC(=O)Cc1c(C(=O)OC)[nH]c(=O)c2c(Cc3ccccc3Cl)c(N3CCC[C@@H](N)C3)nn12 [Example 38, Methyl 2-[(3R)-3-aminopiperidin-1-yl]-3-(2-chlorobenzyl)-7-(2-methoxy-2-oxoethyl)-4-oxo-4,5-dihydropyrazolo[1,5-a]pyrazine-6-carboxylate hydrochloride]
3 | 7.09 | N[C@@H]1CCCN(c2nn3cc(-c4ccccc4)[nH]c(=O)c3c2Cc2ccccc2Cl)C1 [Example 5, 2-[(3R)-3-Aminopiperidin-1-yl]-3-(2-chlorobenzyl)-6-phenylpyrazolo[1,5-a]pyrazin-4(5H)-one hydrochloride]
4 | 8.60 | COC(=O)c1cn2nc(N3CCC[C@@H](N)C3)c(Cc3ccccc3Cl)c2c(=O)[nH]1 [Example 16]
5 | 7.43 | Cc1cn2nc(N3CCC[C@@H](N)C3)c(Cc3ccccc3Cl)c2c(=O)n1C [Example 4, 2-[(3R)-3-Aminopiperidin-1-yl]-3-(2-chlorobenzyl)-5,6-dimethylpyrazolo[1,5-a]pyrazin-4(5H)-one hydrochloride]
6 | 8.30 | Cn1c(C#N)cn2nc(N3CCC[C@@H](N)C3)c(Cc3ccccc3Cl)c2c1=O [Example 20]
7 | 7.55 | CCc1cn2nc(N3CCC[C@@H](N)C3)c(Cc3ccccc3Cl)c2c(=O)n1CC(=O)c1ccccc1 [Example 26]
8 | 7.15 | COc1ccccc1C(=O)Cn1ccn2nc(N3CCC[C@@H](N)C3)c(Cc3ccccc3Cl)c2c1=O [Example 9]
9 | 8.21 | COc1cccc(C(=O)Cn2ccn3nc(N4CCC[C@@H](N)C4)c(Cc4ccccc4Cl)c3c2=O)c1 [Example 13]
10 | 8.80 | N[C@@H]1CCCN(c2nn3cc(C(=O)O)[nH]c(=O)c3c2Cc2ccccc2Cl)C1 [Example 17]
11 | 8.64 | N[C@@H]1CCCN(c2nn3cnn(Cc4nccc5ccccc45)c(=O)c3c2Cc2ccccc2Cl)C1 [Example 35, 2-[(3R)-3-Aminopiperidin-1-yl]-3-(2-chlorobenzyl)-5-(isoquinolin-1-ylmethyl)pyrazolo[1,5-d][1,2,4]triazin-4(5H)-one hydrochloride]
12 | 8.55 | N[C@@H]1CCCN(c2nn3cnn(CC(=O)c4ccccc4)c(=O)c3c2Cc2ccccc2Cl)C1 [Example 34, 2-[(3R)-3-Aminopiperidin-1-yl]-3-(2-chlorobenzyl)-5-(2-oxo-2-phenylethyl)pyrazolo[1,5-d][1,2,4]triazin-4(5H)-one hydrochloride]
13 | 7.60 | CC(C)Oc1cccc(C(=O)Cn2ccn3nc(N4CCC[C@@H](N)C4)c(Cc4ccccc4Cl)c3c2=O)c1 [Example 11]
14 | 9.15 | N[C@@H]1CCCN(c2nn3cc(C(=O)O)[nH]c(=O)c3c2Cc2cc(F)ccc2Cl)C1 [Example 7, 2-[(3R)-3-Aminopiperidin-1-yl]-3-(2-chloro-5-fluorobenzyl)-4-oxo-4,5-dihydropyrazolo[1,5-a]pyrazine-6-carboxylic acid methanesulfonate]
15 | 7.62 | N#Cc1ccccc1Cn1ccn2nc(N3CCC[C@@H](N)C3)c(Cc3ccccc3Cl)c2c1=O [Example 12]
16 | 7.70 | COC(=O)c1[nH]c(=O)c2c(Cc3ccccc3Cl)c(N3CCC[C@@H](N)C3)nn2c1C [Example 1, Methyl 2-[(3R)-3-aminopiperidin-1-yl]-3-(2-chlorobenzyl)-7-methyl-4-oxo-4,5-dihydropyrazolo[1,5-a]pyrazine-6-carboxylate hydrochloride]
17 | 7.82 | N[C@@H]1CCCN(c2nn3cn[nH]c(=O)c3c2Cc2ccccc2Cl)C1 [Example 19]
18 | 7.89 | Cn1c(C(N)=O)cn2nc(N3CCC[C@@H](N)C3)c(Cc3ccccc3Cl)c2c1=O [Example 21]
19 | 7.92 | Cn1ncn2nc(N3CCC[C@@H](N)C3)c(Cc3ccccc3Cl)c2c1=O [Example 33, 2-[(3R)-3-Aminopiperidin-1-yl]-3-(2-chlorobenzyl)-5-methylpyrazolo[1,5-d][1,2,4]triazin-4(5H)-one hydrochloride]
20 | 7.52 | N[C@@H]1CCCN(c2nn3cc[nH]c(=O)c3c2Cc2ccccc2Cl)C1 [Example 3, 2-[(3R)-3-Aminopiperidin-1-yl]-3-(2-chlorobenzyl)pyrazolo[1,5-a]pyrazin-4(5H)-one hydrochloride]
21 | 8.68 | CCOC(=O)c1cn2nc(N3CCC[C@@H](N)C3)c(Cc3ccccc3Cl)c2c(=O)[nH]1 [Example 41, Ethyl 2-[(3R)-3-aminopiperidin-1-yl]-3-(2-chlorobenzyl)-4-oxo-4,5-dihydropyrazolo[1,5-a]pyrazine-6-carboxylate hydrochloride]
22 | 8.15 | N[C@@H]1CCCN(c2nn3ccn(CC(=O)c4ccccc4)c(=O)c3c2Cc2ccccc2Cl)C1 [Example 8, 2-[(3R)-3-Aminopiperidin-1-yl]-3-(2-chlorobenzyl)-5-(2-oxo-2-phenylethyl)pyrazolo[1,5-a]pyrazin-4(5H)-one hydrochloride]
23 | 9.05 | CCOC(=O)c1cn2nc(N3CCC[C@@H](N)C3)c(Cc3cc(F)ccc3Cl)c2c(=O)[nH]1 [Example 32, Ethyl 2-[(3R)-3-aminopiperidin-1-yl]-3-(2-chloro-5-fluorobenzyl)-4-oxo-4,5-dihydropyrazolo[1,5-a]pyrazine-6-carboxylate methanesulfonate]
24 | 7.35 | Cc1c(C)n2nc(N3CCC[C@@H](N)C3)c(Cc3ccccc3Cl)c2c(=O)n1CC(=O)c1ccccc1 [Example 18]
25 | 7.21 | N[C@@H]1CCCN(c2nn3ccn(CCc4ccccc4)c(=O)c3c2Cc2ccccc2Cl)C1 [Example 14]
